{
  "source": "patent US20160220587A1",
  "about": "“VITAMIN D COMPLEXES WITH DE-VDBP AND AN UNSATURATED FATTY ACID, AND THEIR USE IN THERAPY” (priority 2013, published 2016)",
  "key": {"VDBP": {"target": "T1, VDBP (Homo sapiens, UniProt P02774)", "T1 sequence (P02774 17-474)": "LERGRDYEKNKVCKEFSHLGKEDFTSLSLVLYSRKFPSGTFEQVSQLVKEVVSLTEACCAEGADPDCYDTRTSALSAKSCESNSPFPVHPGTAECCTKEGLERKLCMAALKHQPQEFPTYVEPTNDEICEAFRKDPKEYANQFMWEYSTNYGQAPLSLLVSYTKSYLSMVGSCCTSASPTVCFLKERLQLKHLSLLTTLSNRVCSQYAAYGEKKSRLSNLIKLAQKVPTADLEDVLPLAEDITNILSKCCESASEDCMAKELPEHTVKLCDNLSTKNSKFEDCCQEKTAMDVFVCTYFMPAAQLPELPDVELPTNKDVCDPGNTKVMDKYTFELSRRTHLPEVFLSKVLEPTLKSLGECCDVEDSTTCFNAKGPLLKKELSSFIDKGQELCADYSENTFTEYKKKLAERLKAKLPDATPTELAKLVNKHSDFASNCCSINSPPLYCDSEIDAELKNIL", "conditions": "relative to vitamin D3; Am J Kidney Dis, 1998; 32:S25-39; cited from earlier work"}, "[1]": {"system": "MCF-7 human breast cancer cell", "assay": "MCF-7 cell proliferation (Calbiochem Rapid Cell Proliferation Kit)", "format": "cell-based", "conditions": "for Absorbance units (×10^3), cell proliferation: control (no addition) 450 ± 21", "protocol": "The biological activity of the molecules and the multimolecular complexes described in the preceding sections was tested in an in vitro system (MCF-7 human breast cancer cell cultures) that is routinely used to assess the biological activity of vitamin D3 and of the other components of the vitamin D axis (Evid Based Complement Alternat Med. 2012; 2012:310872. Oncol Rep. 2012 December; 28(6):2131-7. Anticancer Res. 2012 March; 32(3):739-46). Human breast carcinoma cells MCF-7 were challenged with different concentration of vitamin D3, de-VDBP, and [vitamin D3/de-VDBP/oleic acid]. […] The same level of inhibition, however, could be achieved with 1000 fold less vitamin D3 when it was complexed with de-VDBP and oleic acid."}},
  "note": "Where no end group is shown, it is not given here.",
  "data": [
    {"molecule": "C=C1/C(=C\\C=C2/CCC[C@]3(C)[C@@H]([C@H](C)/C=C/[C@@H](O)C4CC4)CC[C@@H]23)C[C@@H](O)C[C@@H]1O", "note": "[calcipotriene]", "values": [
      {"measurement": "VDBP affinity", "setting": "VDBP", "result": "low"}
    ]},
    {"molecule": "[2H]C([2H])=C1/C(=C([2H])\\C=C2/CCC[C@]3(C)[C@@H]([C@H](C)CCCC(C)(C)O)CC[C@@H]23)C[C@@H](O)C[C@@H]1O", "note": "[Vitamin D3, 1α,25-Dihydroxyvitamin D3 (6,19,19-d3)]", "values": [
      {"measurement": "Absorbance units (×10^3), cell proliferation", "setting": "[1]; Vitamin D3 1 nM", "result": "425 ± 10 Absorbance units (×10^3)"},
      {"measurement": "Absorbance units (×10^3), cell proliferation", "setting": "[1]; Vitamin D3 1 uM", "result": "55 ± 10 Absorbance units (×10^3)"},
      {"measurement": "Concentration giving maximal inhibition of MCF-7 proliferation", "setting": "[1]; very high, non-physiological concentration", "result": 1, "unit": "µM"}
    ]},
    {"molecule": "de-VDBP: vitamin D binding protein de-glycosylated at position Thr 420 by sequential removal of sialic acid and galactose (DSTTCFNAKGPLLKKELSSFIDKGQELC; cysteine pairing not given here; also: de-glycosylated at Thr 420 by removal of sialic acid and galactose; listed as Homo sapiens)", "values": [
      {"measurement": "Absorbance units (×10^3), cell proliferation", "setting": "[1]; de-VDBP 1 ng/ml", "result": "395 ± 37 Absorbance units (×10^3)"}
    ]},
    {"molecule": "C=C1/C(=C\\C=C2/CCC[C@]3(C)[C@@H]([C@H](C)OCCC(C)(C)O)CC[C@@H]23)C[C@@H](O)C[C@@H]1O", "note": "[22-oxacalcitriol]", "values": [
      {"measurement": "VDBP affinity", "setting": "VDBP", "result": "low"}
    ]},
    {"molecule": "[Vitamin D3 1 nM/de-VDBP 1 ng/ml/oleic acid 1/1]: trimeric complex of vitamin D3 and oleic acid bound to de-VDBP via hydrophobic interactions (protein, UniProt P02774 17-474, looked up, deglycosylated; vitamin D3 and oleic acid bound) Vitamin D-binding protein: LERGRDYEKNKVCKEFSHLGKEDFTSLSLVLYSRKFPSGTFEQVSQLVKEVVSLTEACCAEGADPDCYDTRTSALSAKSCESNSPFPVHPGTAECCTKEGLERKLCMAALKHQPQEFPTYVEPTNDEICEAFRKDPKEYANQFMWEYSTNYGQAPLSLLVSYTKSYLSMVGSCCTSASPTVCFLKERLQLKHLSLLTTLSNRVCSQYAAYGEKKSRLSNLIKLAQKVPTADLEDVLPLAEDITNILSKCCESASEDCMAKELPEHTVKLCDNLSTKNSKFEDCCQEKTAMDVFVCTYFMPAAQLPELPDVELPTNKDVCDPGNTKVMDKYTFELSRRTHLPEVFLSKVLEPTLKSLGECCDVEDSTTCFNAKGPLLKKELSSFIDKGQELCADYSENTFTEYKKKLAERLKAKLPDATPTELAKLVNKHSDFASNCCSINSPPLYCDSEIDAELKNIL", "values": [
      {"measurement": "Absorbance units (×10^3), cell proliferation", "setting": "[1]; Vitamin D3 1 nM / de-VDBP 1 ng/ml / oleic acid ratio 1/1", "result": "55 ± 9 Absorbance units (×10^3)"},
      {"measurement": "Fold less vitamin D3 needed for the same level of inhibition", "setting": "[1]; versus 1 uM vitamin D3 alone", "result": 1000, "unit": "fold"}
    ]}
  ]
}
